Consider 15 compounds from publication PMC9781117, “New 5-Aryl-1,3,4-Thiadiazole-Based Anticancer Agents: Design, Synthesis, In Vitro Biological Evaluation and In Vivo Radioactive Tracing Studies” (Pharmaceuticals, 2022).

≈ marks a conversion by molar mass, not a printed value.

Data set [1] deals with HepG2 human hepatocellular carcinoma cells. The data set is described as follows: MTT cytotoxicity assay, HepG2. The conditions noted are these: MTT, 48 h, means ± SD of three independent experiments; for IC50: Homo sapiens, HepG2. Type of data set: cell-based. Here is the method: (§1) The in vitro cytotoxicity of the synthesized 1,3,4-thiadiazole derivatives against breast adenocarcinoma cells (MCF-7) and human hepatocellular carcinoma (HepG2) cell lines were evaluated by the MTT assay, using 5-Fluorouracil (5-FU) as a positive control.
(§2) Human hepatocellular carcinoma (HepG2) cells and breast adenocarcinoma (MCF7) cells were purchased from the American Type Culture Collection (ATCC, USA). Under 37 °C with 5% CO2 in a humid incubator, cells were propagated using RPMI supplemented with 10% fetal bovine serum (FBS) and 1% v/v penicillin-streptomycin.
(§3) According to Tim Mosmann’s approach, an MTT assay was performed to assess the antiproliferative properties of the compounds. In short, HepG2 or MCF7 cells (0.5 × 105) were grown in flat-bottom 96-well microplates in 180 μL/well RPMI media supplemented with 10% fetal bovine serum, 2μmol/mL L-glutamine, 250 ng/mL fungizone, and 100 units/mL penicillin-streptomycin solutions at 37 °C in a CO2 incubator. Following incubation, 180 μL/well of the new serum-free medium was added to each well after the old media had been withdrawn. After that, cells were exposed to 20 μL of various concentrations of the compounds (50–0.75 μg/mL) and were incubated for 48 h at 37 °C in a humidified 5% CO2 environment. The MTT solution (20 µL/well) was added and incubated for a further 4 h. The plate was agitated at room temperature while acidified isopropanol (160 μL/well) was added to dissolve the formazan crystals. The absorbance at 570 nm was then determined photometrically using the microplate ELISA reader (FLUOstar Omega, BMG, Labtech, Germany). Graph-Pad PRISM version 6 was used to determine the IC50 for each compound.

For data set [2], the system named is MCF-7 breast adenocarcinoma cells. In words: MTT cytotoxicity assay, MCF-7. Type of data set: cell-based, human. The conditions noted are these: for IC50: Homo sapiens, MCF7; for IC50 / IC50 MCF-7: MTT, 48 h, means ± SD of three independent experiments; for fold increase in activity relative to parent analogue: MCF-7, 4d vs 4c, 5b, 5c, 5d vs 5a. Here is the method: as §1, §2, §3
On the technique in general: Formazan colour is commonly taken as a measure of viable cells.

Data set [3] concerns breast cancer MCF-7 cells. Also on record: method as in PMID 22261027. The conditions noted are these: cited from earlier work.

On to `O=C(CN1CCN(C(=O)c2ccco2)CC1)Nc1nnc(-c2ccc(Cl)cc2)s1` [Compound 4h, N-(5-(4-Chlorophenyl)-1,3,4-Thiadiazol-2-yl)-2-(4-(Furan-2-Carbonyl)Piperazin-1-yl)Acetamide], for which the IC50 came out at 8.35 ± 0.15 µg/mL (≈ 19.3 µM) in data set [1] and 3.21 ± 0.3 µg/mL (≈ 7.43 µM) in data set [2].

For the compound “4-((5-(4-Chlorophenyl)-1,3,4-Thiadiazol-2-yl)Imino)-N-(4-Ethylphenyl)-4,5-Dihydrothiazol-2-Amine [Compound 5c]”, the “IC50 HepG2” value in data set [1] turned out to be 11.25 ± 0.44 µg/mL. Moreover, in data set [2], the “fold increase in activity relative to parent analogue” value is on record as 2- to 4 fold and the “IC50 MCF-7” value was 5.72 ± 0.17 µg/mL.

Turning to `O=C(CN1CCN(c2ccccc2)CC1)Nc1nnc(-c2ccc(Cl)cc2)s1` [Compound 4c, N-(5-(4-Chlorophenyl)-1,3,4-Thiadiazol-2-yl)-2-(4-Phenylpiperazin-1-yl)Acetamide], the results for the half-maximal inhibitory concentration (IC50) in data set [1] and in data set [2] were 27.9 ± 0.93 µg/mL (≈ 67.5 µM) and 49.4 ± 3.5 µg/mL (≈ 119 µM), respectively.

On to `O=C(CN1CCN(c2ccc(F)cc2)CC1)Nc1nnc(-c2ccc(Cl)cc2)s1` [Compound 4g, N-(5-(4-Chlorophenyl)-1,3,4-Thiadiazol-2-yl)-2-(4-(4-Fluorophenyl)Piperazin-1-yl)Acetamide], for which the concentration for half-maximal inhibition (IC50) in data set [1] was 13.9 ± 0.59 µg/mL (≈ 32.1 µM); in data set [2] it was 10.1 ± 1.2 µg/mL (≈ 23.4 µM).

Turning to “4-((4-((5-(4-Chlorophenyl)-1,3,4-Thiadiazol-2-yl)Imino)-4,5-Dihydrothiazol-2-yl)Amino)Phenol [Compound 5d]”, the “IC50 HepG2” value in data set [1] was found to be 14.12 ± 0.01 µg/mL. In data set [2], the “fold increase in activity relative to parent analogue” value is given as 2- to 4 fold and the “IC50 MCF-7” value amounted to 6.12 ± 0.51 µg/mL.

In turn, `Cc1ccc(N2CCN(CC(=O)Nc3nnc(-c4ccc(Cl)cc4)s3)CC2)cc1` [Compound 4d, N-(5-(4-Chlorophenyl)-1,3,4-Thiadiazol-2-yl)-2-(4-(4-Tolyl)Piperazin-1-yl)Acetamide] returned a melting point of 222 to 224 °C. Also, the IC50 in data set [1] was determined as 44.9 ± 1.54 µg/mL (≈ 105 µM). In data set [2], it took 21.8 ± 0.43 µg/mL (≈ 50.8 µM) to reach half-maximal inhibition (IC50) and the “fold increase in activity relative to parent analogue” value was above 2 fold.

Take “4-((5-(4-Chlorophenyl)-1,3,4-Thiadiazol-2-yl)Imino)-N-Phenyl-4,5-Dihydrothiazol-2-Amine [Compound 5a]”: in data set [1], the “IC50 HepG2” value was found to be 26.12 ± 2.02 µg/mL. Besides, in data set [2], the “IC50 MCF-7” value came out at 24.79 ± 2.30 µg/mL.

With `O=c1[nH]cc(F)c(=O)[nH]1` [Compound 5-FU, 5-Fluorouracil, reference compound], the half-inhibitory concentration (IC50) stood at 8.4 ± 1.2 µg/mL (≈ 64.6 µM) in data set [1] and 6.8 ± 0.9 µg/mL (≈ 52.3 µM) in data set [2].

With “4-((5-(4-Chlorophenyl)-1,3,4-Thiadiazol-2-yl)Imino)-N-(4-Tolyl)-4,5-Dihydrothiazol-2-Amine [Compound 5b]”, the “IC50 HepG2” value in data set [1] is 8.81 ± 0.64 µg/mL. Besides, in data set [2], the “fold increase in activity relative to parent analogue” value is on record as 2- to 4 fold and the “IC50 MCF-7” value is 12.64 ± 0.47 µg/mL.

In the case of `COc1ccc(/C=C/C(=O)Nc2nnc(-c3ccc(OC)cc3)s2)cc1` [II], in data set [3], the “IC50 MCF-7 growth inhibition” value was 0.28 µg/mL (≈ 0.762 µM) and the “cell cycle effect in MCF-7 cells” value is “cell cycle arrest at the G2/M phase”.

`CCOc1ccc(N2CCN(CC(=O)Nc3nnc(-c4ccc(Cl)cc4)s3)CC2)cc1` [Compound 4f, N-(5-(4-Chlorophenyl)-1,3,4-Thiadiazol-2-yl)-2-(4-(4-Ethoxyphenyl)Piperazin-1-yl)Acetamide] yielded a melting point of 225 to 227 °C. Further, in data set [1], the half-maximal inhibitory concentration (IC50) amounted to 38.1 ± 0.14 µg/mL (≈ 83.2 µM). 18.4 ± 0.85 µg/mL (≈ 40.2 µM) corresponded to half-maximal inhibition in data set [2] (IC50).

For the compound `O=C(C[n+]1ccccc1)Nc1nnc(-c2ccc(Cl)cc2)s1.[Cl-]` [Compound 3, 1-(2-((5-(4-Chlorophenyl)-1,3,4-Thiadiazol-2-yl)Amino)-2-Oxoethyl)Pyridinium Chloride], the values for the half-inhibitory concentration (IC50) in data set [1] and in data set [2] were 13 ± 0.11 µg/mL and 7.56 ± 1.2 µg/mL, respectively.

The compound `CN1CCN(CC(=O)Nc2nnc(-c3ccc(Cl)cc3)s2)CC1` [Compound 4a, N-(5-(4-Chlorophenyl)-1,3,4-Thiadiazol-2-yl)-2-(4-Methylpiperazin-1-yl)Acetamide] showed a melting point of 168 to 170 °C. In data set [1], this compound showed an IC50 of 26.3 ± 5.76 µg/mL (≈ 74.7 µM). This compound showed a half-maximal inhibitory concentration (IC50) in data set [2] of 51.56 ± 0.48 µg/mL (≈ 147 µM).

Take `CCN1CCN(CC(=O)Nc2nnc(-c3ccc(Cl)cc3)s2)CC1` [Compound 4b, N-(5-(4-Chlorophenyl)-1,3,4-Thiadiazol-2-yl)-2-(4-Ethylpiperazin-1-yl)Acetamide]: the 50% inhibitory concentration (IC50) in data set [1] was determined as 3.55 ± 0.05 µg/mL (≈ 9.7 µM); in data set [2] it was 25.2 ± 1.3 µg/mL (≈ 68.9 µM).

With “N-(4-Bromophenyl)-4-((5-(4-Chlorophenyl)-1,3,4-Thiadiazol-2-yl)Imino)-4,5-Dihydrothiazol-2-Amine [Compound 5e]”, the “IC50 HepG2” value in data set [1] is reported as 25.77 ± 0.64 µg/mL. Besides, the “IC50 MCF-7” value in data set [2] stood at 3.77 ± 0.13 µg/mL.

What is called IC50 is the midpoint of a concentration-inhibition curve. As a reminder, the melting point is the temperature, or range, at which the solid turns liquid.
